Values of other authors in paper PMC13601336 (Frontiers in Pharmacology, 2026).
pKi: −log10 of the molar value.

Target: T1, UGT1A1 (Homo sapiens, UniProt P22309)
T1 construct: purchased BD Gentest (Woburn, MA, USA)
T1 sequence (P22309 26-533): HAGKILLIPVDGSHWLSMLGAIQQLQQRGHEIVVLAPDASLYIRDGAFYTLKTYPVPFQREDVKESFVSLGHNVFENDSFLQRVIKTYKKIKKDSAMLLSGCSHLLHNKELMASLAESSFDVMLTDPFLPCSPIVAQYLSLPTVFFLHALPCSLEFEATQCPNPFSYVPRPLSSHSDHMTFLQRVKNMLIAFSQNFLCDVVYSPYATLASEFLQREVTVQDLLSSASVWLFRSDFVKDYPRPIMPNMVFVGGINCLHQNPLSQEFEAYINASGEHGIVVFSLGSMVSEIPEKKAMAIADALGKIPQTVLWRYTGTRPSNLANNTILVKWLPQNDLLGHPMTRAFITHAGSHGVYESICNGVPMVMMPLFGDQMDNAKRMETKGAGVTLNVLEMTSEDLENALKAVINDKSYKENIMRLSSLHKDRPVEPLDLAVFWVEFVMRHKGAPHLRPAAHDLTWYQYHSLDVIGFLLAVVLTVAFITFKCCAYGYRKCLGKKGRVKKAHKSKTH
Conditions: ref Zhang et al., 2021

pKi: 5.66
Compound: O=c1c(O)c(-c2ccc(O)c(O)c2)oc2cc(O)cc(O)c12 [Quercetin, quercetin]
